Measurements reported in patent US10752609B2, “GSK-3 inhibitors” (priority 2016, dated 2020).
Read-outs that look alike come from different tables or passages of the source.

Assays:
GSK3β = GSK3β (Homo sapiens, UniProt P49841); assay: GSK3β kinase assay (Caliper LabChip3000 mobility shift, fluoresceinated peptide substrate); type: biochemical
pTau = pTau assay (no method described); type: cell-based
GSK3α = GSK3α (Homo sapiens, UniProt P49840); assay: GSK3α kinase assay (Caliper LabChip3000 mobility shift, fluoresceinated peptide substrate)
Sequence of GSK3α (P49840 whole entry, species assumed): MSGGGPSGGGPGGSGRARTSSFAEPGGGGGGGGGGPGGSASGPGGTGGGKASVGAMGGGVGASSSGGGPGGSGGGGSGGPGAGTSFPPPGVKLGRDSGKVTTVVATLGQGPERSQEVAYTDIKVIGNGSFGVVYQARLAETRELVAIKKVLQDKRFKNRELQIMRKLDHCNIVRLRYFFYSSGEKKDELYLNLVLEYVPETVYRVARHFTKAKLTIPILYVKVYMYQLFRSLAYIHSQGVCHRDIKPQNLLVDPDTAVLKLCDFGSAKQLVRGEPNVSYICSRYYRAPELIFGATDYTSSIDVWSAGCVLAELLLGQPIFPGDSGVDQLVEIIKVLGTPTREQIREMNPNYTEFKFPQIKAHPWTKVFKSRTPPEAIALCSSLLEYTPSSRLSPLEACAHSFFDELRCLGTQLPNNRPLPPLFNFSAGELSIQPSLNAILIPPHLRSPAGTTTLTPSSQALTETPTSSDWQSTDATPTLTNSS

[1] = 250 pM enzyme, 20 uM ATP, 1.5 uM peptide, 20 hours room temperature, first value of cell GSK3β/GSK3α, read-out: GSK3β (nM), IC50

Sequence of GSK3β (P49841 whole entry, species assumed): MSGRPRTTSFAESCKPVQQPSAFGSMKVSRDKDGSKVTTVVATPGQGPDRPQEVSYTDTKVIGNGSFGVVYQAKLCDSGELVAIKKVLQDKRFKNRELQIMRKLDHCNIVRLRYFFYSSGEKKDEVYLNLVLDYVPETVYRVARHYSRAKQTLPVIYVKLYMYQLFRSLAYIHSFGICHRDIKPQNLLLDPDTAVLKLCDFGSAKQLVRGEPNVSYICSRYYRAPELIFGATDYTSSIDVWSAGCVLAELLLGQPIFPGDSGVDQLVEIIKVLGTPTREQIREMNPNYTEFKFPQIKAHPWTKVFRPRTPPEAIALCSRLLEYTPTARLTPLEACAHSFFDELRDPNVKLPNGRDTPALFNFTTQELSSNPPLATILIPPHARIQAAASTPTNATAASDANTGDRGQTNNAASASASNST

SMILES	IC50 (GSK3β; [1]) [nM]	IC50 (pTau) [nM]	IC50 (GSK3α) [nM]	IC50 (GSK3β) [nM]
O=C(Nc1cnccc1-c1ccccc1)c1ccnc(NC2CCOCC2)n1 [Example 88, N-(4-Phenylpyridin-3-yl)-2-((tetrahydro-2H-pyran-4-yl)amino)pyrimidine-4-carboxamide]	2.6	150	1.4	
Cc1ccc(Nc2nccc(C(=O)Nc3cnccc3-c3ccccc3)n2)cn1 [Example 89, 2-((6-Methylpyridin-3-yl)amino)-N-(4-phenylpyridin-3-yl)pyrimidine-4-carboxamide]	3	73	1.5	
CCn1nccc1Nc1nccc(C(=O)Nc2cnccc2-c2ccccc2)n1 [Example 90, 2-((1-Ethyl-1H-pyrazol-5-yl)amino)-N-(4-phenylpyridin-3-yl)pyrimidine-4-carboxamide]		120	2.2	3
O=C(Nc1cnccc1-c1ccccc1)c1ccnc(Nc2cncc3c2CCCC3)n1 [Example 91, N-(4-Phenylpyridin-3-yl)-2-((5,6,7,8-tetrahydroisoquinolin-4-yl)amino)pyrimidine-4-carboxamide]	3.5	270	2.3	
CCO[C@H]1COC[C@@H]1Nc1nccc(C(=O)Nc2cnccc2-c2ccccc2)n1 [Example 92, 2-(((3S,4R)-4-Ethoxytetrahydrofuran-3-yl)amino)-N-(4-phenylpyridin-3-yl)pyrimidine-4-carboxamide]	3.8	250	2.2	
CN(C)c1ccc(Nc2nccc(C(=O)Nc3cnccc3-c3ccccc3)n2)cn1 [Example 93, 2-((6-(Dimethylamino)pyridin-3-yl)amino)-N-(4-phenylpyridin-3-yl)pyrimidine-4-carboxamide]	4.3	390	3.1	
O=C(Nc1cnccc1-c1ccccc1)c1ccnc(NC2CCCOC2)n1 (stereo not drawn) [Example 94, N-(4-Phenylpyridin-3-yl)-2-((tetrahydro-2H-pyran-3-yl)amino)pyrimidine-4-carboxamide]	5.1	210	3.5	
Cc1cc(Nc2nccc(C(=O)Nc3cnccc3-c3ccccc3)n2)sn1 [Example 95, 2-((3-Methylisothiazol-5-yl)amino)-N-(4-phenylpyridin-3-yl)pyrimidine-4-carboxamide]	5.7	78	0.7	
CN(C)CCOc1ccc(Nc2nccc(C(=O)Nc3cnccc3-c3ccccc3)n2)cn1 [Example 96, 2-((6-(2-(Dimethylamino)ethoxy)pyridin-3-yl)amino)-N-(4-phenylpyridin-3-yl)pyrimidine-4-carboxamide]	18	900	11	
Cn1nc(C2CC2)cc1Nc1nccc(C(=O)Nc2cnccc2-c2ccccc2)n1 [Example 97, 2-((3-Cyclopropyl-1-methyl-1H-pyrazol-5-yl)amino)-N-(4-phenylpyridin-3-yl)pyrimidine-4-carboxamide]	29	870	30	
Cn1ccc(Nc2nccc(C(=O)Nc3cnccc3-c3ccccc3)n2)n1 [Example 98, 2-((1-Methyl-1H-pyrazol-3-yl)amino)-N-(4-phenylpyridin-3-yl)pyrimidine-4-carboxamide]	46	2600	37	
Cn1cc(Nc2nccc(C(=O)Nc3cnccc3-c3ccccc3)n2)nn1 [Example 99, 2-((1-Methyl-1H-1,2,3-triazol-4-yl)amino)-N-(4-phenylpyridin-3-yl)pyrimidine-4-carboxamide]	78	10000	190	
CC(C)CNc1ccc(Nc2nccc(C(=O)Nc3cnccc3-c3ccccc3)n2)cn1 [Example 100, 2-((6-(Isobutylamino)pyridin-3-yl)amino)-N-(4-phenylpyridin-3-yl)pyrimidine-4-carboxamide]	93	10000	65	
O=C(Nc1cnccc1-c1ccccc1)c1ccnc(Nc2cnns2)n1 [Example 101, 2-((1,2,3-Thiadiazol-5-yl)amino)-N-(4-phenylpyridin-3-yl)pyrimidine-4-carboxamide]	100	9000	42	
Cn1cnc(Nc2nccc(C(=O)Nc3cnccc3-c3ccccc3)n2)c1 [Example 102, 2-((1-Methyl-1H-imidazol-4-yl)amino)-N-(4-phenylpyridin-3-yl)pyrimidine-4-carboxamide]	260	10000	170	
Cc1ccc(Nc2nccc(C(=O)Nc3cncc(-c4ccccc4F)c3)n2)cn1 [Example 103, N-(5-(2-Fluorophenyl)pyridin-3-yl)-2-((6-methylpyridin-3-yl)amino)pyrimidine-4-carboxamide]	3.1	510	1.3	
O=C(Nc1cncc(-c2ccccc2F)c1)c1ccnc(Nc2ccc(F)nc2)n1 [Example 104, N-(5-(2-Fluorophenyl)pyridin-3-yl)-2-((6-fluoropyridin-3-yl)amino)pyrimidine-4-carboxamide]	4.8	660	2.1	

SMILES	IC50 (GSK3β; [1]) [nM]	IC50 (pTau) [nM]	IC50 (GSK3α) [nM]	IC50 (GSK3β) [nM]
O=C(Nc1cncc(-c2ccccc2F)c1)c1ccnc(Nc2ccc(OC(F)F)nc2)n1 [Example 105, 2-((6-(Difluoromethoxy)pyridin-3-yl)amino)-N-(5-(2-fluorophenyl)pyridin-3-yl)pyrimidine-4-carboxamide]	31	2100	15	
O=C(Nc1cnccc1OCC(F)(F)F)c1ccnc(Nc2ccc3cnccc3c2)n1 [Example 106, 2-(Isoquinolin-6-ylamino)-N-(4-(2,2,2-trifluoroethoxy)pyridin-3-yl)pyrimidine-4-carboxamide]	0.11	1.9	0.09	
O=C(Nc1cnccc1OCC(F)(F)F)c1ccnc(Nc2ccc3cccnc3c2)n1 [Example 107, 2-(Quinolin-7-ylamino)-N-(4-(2,2,2-trifluoroethoxy)pyridin-3-yl)pyrimidine-4-carboxamide]	0.17	9.4	0.24	
O=C(Nc1cnc(F)cc1OCC(F)(F)F)c1ccnc(Nc2ccc(C(F)(F)F)cc2)n1 [Example 109, N-(6-Fluoro-4-(2,2,2-trifluoroethoxy)pyridin-3-yl)-2-((4-(trifluoromethyl)phenyl)amino) pyrimidine-4-carboxamide]	0.88	44	0.43	
O=C(Nc1cnc(F)cc1OCC(F)(F)F)c1ccnc(Nc2ccc(Cl)cc2)n1 [Example 110, 2-((4-Chlorophenyl)amino)-N-(6-fluoro-4-(2,2,2-trifluoroethoxy)pyridin-3-yl)pyrimidine-4-carboxamide]	1.1	65	0.68	
O=C(Nc1cnccc1OCC(F)(F)F)c1ccnc(Nc2ccc(C(F)(F)F)cn2)n1 [Example 111, N-(4-(2,2,2-Trifluoroethoxy)pyridin-3-yl)-2-((5-(trifluoromethyl)pyridin-2-yl)amino)pyrimidine-4-carboxamide]	2.9	220	2.2	
O=C(Nc1cnccc1OCC(F)(F)F)c1ccnc(Nc2ccc(F)cc2F)n1 [Example 113, 2-((2,4-Difluorophenyl)amino)-N-(4-(2,2,2-trifluoroethoxy)pyridin-3-yl)pyrimidine-4-carboxamide]	5.3	300	4	
O=C(Nc1cnccc1OCC(F)(F)F)c1ccnc(Nc2ccccn2)n1 [Example 114, 2-(Pyridin-2-ylamino)-N-(4-(2,2,2-trifluoroethoxy)pyridin-3-yl)pyrimidine-4-carboxamide]		210	14	20
O=C(Nc1cnccc1OCC(F)(F)F)c1ccnc(NC2CCCC2)n1 [Example 116, 2-(Cyclopentylamino)-N-(4-(2,2,2-trifluoroethoxy)pyridin-3-yl)pyrimidine-4-carboxamide]	0.19	12	0.16	
O=C(Nc1cnccc1OCC(F)(F)F)c1ccnc(NC2CCCCC2)n1 [Example 117, 2-(Cyclohexylamino)-N-(4-(2,2,2-trifluoroethoxy)pyridin-3-yl)pyrimidine-4-carboxamide]	0.25	28	0.21	
O=C(Nc1cnccc1OCC(F)(F)F)c1ccnc(NCC2CC2)n1 [Example 118, 2-((Cyclopropylmethyl)amino)-N-(4-(2,2,2-trifluoroethoxy)pyridin-3-yl)pyrimidine-4-carboxamide]	0.3	14	0.28	
CC(C)Nc1nccc(C(=O)Nc2cnccc2OCC(F)(F)F)n1 [Example 120, 2-(Isopropylamino)-N-(4-(2,2,2-trifluoroethoxy)pyridin-3-yl)pyrimidine-4-carboxamide]	0.44	26	1.4	
CC(C)(C)C1CCC(Nc2nccc(C(=O)Nc3cnccc3OCC(F)(F)F)n2)CC1 (stereo not drawn) [Example 121, 2-((4-(tert-Butyl)cyclohexyl)amino)-N-(4-(2,2,2-trifluoroethoxy)pyridin-3-yl)pyrimidine-4-carboxamide]	0.46	61	0.35	
CC(C)(C)[C@H]1CC[C@@H](Nc2nccc(C(=O)Nc3cnccc3OCC(F)(F)F)n2)CC1 [Example 122]	8.4	4200	12	
CCNc1nccc(C(=O)Nc2cnccc2OCC(F)(F)F)n1 [Example 123, 2-(Ethylamino)-N-(4-(2,2,2-trifluoroethoxy)pyridin-3-yl)pyrimidine-4-carboxamide]	0.92	55	4.5	
O=C(Nc1cnccc1OCC(F)(F)F)c1ccnc(NC2CCOCC2)n1 [Example 124, 2-((Tetrahydro-2H-pyran-4-yl)amino)-N-(4-(2,2,2-trifluoroethoxy)pyridin-3-yl)pyrimidine-4-carboxamide]		68	0.95	0.99
